Molecular target: T1, Dihydroorotate dehydrogenase (quinone), mitochondrial [30-395] (Homo sapiens, UniProt Q02127)
T1 construct: 30-395
Assay: DHODH Inhibition Assay
Settings: pH 8; 25 °C
Protocol: The assays were carried out by using a colorimetric DCIP method, which uses the colorimetric reagent 2, 6-dichlorophenolindophenol as the final electron acceptor. DCIP reduction is stoichiometrically equivalent to oxidation of dihydroorotate. Changes in absorbance were quantified in triplicate on a plate reader and data were analyzed to measure the reduction of DCIP as a decrease in absorbance at 610 nm. […] Each data point was recorded in triplicates on a single measurement day.

T1 sequence (Q02127 30-395): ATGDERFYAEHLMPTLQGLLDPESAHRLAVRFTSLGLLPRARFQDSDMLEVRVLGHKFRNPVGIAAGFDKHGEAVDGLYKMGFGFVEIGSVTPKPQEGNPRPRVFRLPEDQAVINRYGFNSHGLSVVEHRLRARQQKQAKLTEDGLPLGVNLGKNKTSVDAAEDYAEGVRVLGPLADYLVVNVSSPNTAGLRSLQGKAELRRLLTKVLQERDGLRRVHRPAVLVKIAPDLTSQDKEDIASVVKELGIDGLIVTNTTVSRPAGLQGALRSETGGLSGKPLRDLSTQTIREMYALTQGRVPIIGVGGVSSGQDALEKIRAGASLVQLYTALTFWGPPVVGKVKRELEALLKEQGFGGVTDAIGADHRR

Work on `O=C(O)c1cscc1C(=O)Nc1c(F)cc(-c2cccc(OC(F)(F)F)c2)cc1F` [4-({2,6-difluoro-4-[3-(trifluoromethoxy)phenyl]phenyl}carbamoyl)thiophene-3-carboxylic acid] yielded an IC50 of 10 nM.

— BindingDB's records for doi:10.1016/j.bmcl.2005.10.011 (4Sc, 2006)
